Test results as given in patent publication US20110293746A1, “Modulation of Gsk-3Beta and Method of Treating Proliferative Disorders” (Agency For Science, Technology and Research, priority 2004, published 2011).
“Also recorded” adds a separate entry of the source.

Key:
Assay type in all cases: cell-based, Human
HCT116 cells = experiment: FACS analysis of DNA content (sub-G1 apoptotic fraction)
Experimental: (§1) Cell culture and drug treatments: Human colon cancer cell line HCT116 and its derived isogenic p53^−/−, Puma^−/−, Bax^−/− and p53-inducible DLD cell lines were kindly provided by Dr. Bert Vogelstein (Johns Hopkins University, MD). RKO and RKO/E6 cells were from ATCC. Cells were cultured in DMEM containing 10% FBS. All culture reagents and media were from Invitrogen. 5-Fluorouracil, Adriamycin, etoposide and lithium chloride were purchased from Sigma. GSK-3β specific small molecule inhibitor LY2119301 was a gift from Eli Lilly (Indianapolis) and SB-216763, SB-415283 were obtained from BIOMOL.
(§2) FACS analysis of DNA content and caspase-3 activity: Cells were harvested and fixed in 70% ethanol. Fixed cells were stained with propidium iodide (50 μg/ml) after treatment with RNase (100 μg/ml). The stained cells were analyzed for DNA content by fluorescence-activated cell sorting (FACS) in a FACScalibur™ (Becton Dickinson Instrument, San Jose, Calif.). Cell cycle fractions were quantified using the CellQues™ software (Becton Dickinson). To measure caspase-3 activity, cells were fixed with Cytofix/Cytoperm™ solution (BD PharMingen) as instructed, and then stained with FITC-conjugated rabbit anti-active caspase-3 monoclonal antibody (BD PharMingen). Quantification of cells positive for the caspase-3 detection was performed by flow cytometry.

HCT116 p53 −/− cells = experiment: as above
Experimental: as §1, §2

[1] = system: HCT116 cells expressing p53 shRNA; experiment: FACS apoptosis in HCT116 cells expressing p53 shRNA; settings: LY2119301 and ADR (1 μM) or 5-FU (100 μM), 24 h, p53 knockdown
Experimental: as §2
RNA interference: To generate knockdown vectors for p53, the following 19-nucleotide sequence was used: […] [SEQ ID NO: 1]. The oligonucleotide pair was cloned into the retroviral expression vector pSIREN-RetroQ™ (BD Bioscienses) according to the manufacturer's instructions. Briefly, 293 cells were transfected with the p53 shRNA construct for 48 h to produce viral particles. To establish p53 shRNA stable transfection clones, HCT116 cells were infected with retroviral stocks in the presence of 5 μg/ml polybrene. Infected cells were subject to puromycin selection at 2 μg/ml. […]

RKO cells = experiment: FACS apoptosis (sub-G1); settings: p53 wild-type, with ADR
Experimental: as §1, §2

RKO/E6 cells = experiment: FACS apoptosis (sub-G1); settings: p53-inactive, with ADR
Experimental: as §1, §2

HT29 = experiment: Apoptosis in p53 mutant colon cancer cell line; settings: data not shown
Experimental: as §2

SW480 = experiment: Apoptosis in p53 mutant colon cancer cell line; settings: data not shown
Experimental: as §2

[2] = system: p53 and p53 targets in HCT116 cells; experiment: Immunoblot analyses of p53 and p53 targets
Experimental: (§3) Western blotting, immunoprecipitation and microarray analysis: Cells were scraped, collected and lysed as described previously (Yu, Q., et al. Cancer Res, 62: 5743-5748, 2002). Briefly, cells were lysed with cell lysis buffer (0.3% NP40, 1 mM EDTA, 50 mM Tris-HCl (pH 7.4), 2 mM EGTA, 1% Triton X-100, […], 25 mM NaF, 1 mM Na3VO4, 2 mM AEBSF, 5 μg/ml aprotinin, 1 μg/ml leupeptin) for 30 minutes on ice, and the lysates were clarified by centrifugation at 12,000×g for 15 minutes at 4° C. Protein concentration was quantified (Bio-Rad, Hercules, Calif.) and protein samples (50 μg) were separated by SDS/PAGE and transferred onto Immobilon™ membranes (Millipore, Bedford, Mass.). Antibodies against the following proteins were used: p53 (DO-1), p21, PARP, GSK-α/β, α-Tubulin, and β-actin (Santa Cruz Biotechnology), Puma (Ab-1, Oncogene), Bax (Sigma), phosphor-(Ser9/21)-GSK-3α/β and Caspase-9 (Cell Signaling Technologies), phosphor-(Tyr216/279)-GSK-3α/β (Upstate Biotechnologies), cytochrome c (BD PharMingen). To detect Bax conformational change, cells were lysed in 1% Chaps buffer and the soluble fraction was immunoprecipitated with anti-Bax monoclonal antibody (6A7, BD, PharMingen), followed by immunoblotting with anti-Bax polyclonal antibody. Microarray analysis was performed as described (Kho, P. S., et al. J Biol Chem, 279: 21183-21192, 2004).

p53-inducible DLD1 cells = experiment: Apoptosis and immunoblot in tetracycline-inducible p53 expressing cells
Experimental: as §1, §3, §2

[3] = system: HCT116 cells infected with Ad-p53; experiment: Apoptosis and immunoblot in cells infected with adenovirus expressing p53
Experimental: as §3, §2
Adenoviral infections: Adenovirus Ad-LacZ and Ad-p53 were obtained from Dr. Shibin Zhou (Johns Hopkins University, Md.). Cells were grown to 50% confluence and infected with recombinant adenovirus as described (Yu, J., et al. Proc Natl Acad Sci USA, 96: 14517-14522, 1999). Twenty-four hours after the infection, cells were treated with drugs for the indicated times.

Bax [4] = experiment: Bax conformational activation (IP with 6A7 antibody, Western blot); settings: co-treatment with LY2119301 and ADR, etoposide or 5-FU, 24 h
Experimental: as §3

Bax [5] = experiment: Bax conformational activation (IP with 6A7 antibody, Western blot) in HCT116 p53 −/− cells; settings: same conditions
Experimental: as §3

[6] = with ADR, etoposide or 5-FU, HCT116 (LY2119301 also RKO)

## CN1CCN(c2ccc(NCCNc3ccc([N+](=O)[O-])c(N)n3)nc2-c2ccc(Cl)cc2Cl)C(=O)C1 [LY2119301]
HCT116 cells; 5-FU in presence of LY2119301
  5-FU-induced apoptosis: greatly sensitized
HCT116 cells; LY2119301 with etoposide (10 μM) or camptothecin (100 nM), 24 h
  apoptosis in response to other DNA damaging agents: triggered p53-dependent apoptosis; also recorded: robust apoptosis
HCT116 cells; co-treatment ADR (1 μM) and LY2119301 (5 μM), 24 h
  cell death, sub-G1 population: ~59%
HCT116 cells; dose-effect experiments, 5-FU in presence of LY2119301
  increase in apoptosis induction by 5-FU: 10 fold
HCT116 cells; with ADR
  concentration able to induce apoptosis in ADR-treated cells (as low as): 250 nM
HCT116 p53 −/− cells; 5-FU in presence of LY2119301, cells null for p53
  5-FU-induced apoptosis: no increased apoptosis
HCT116 p53 −/− cells; ADR and LY2119301 co-treatment, 24 h, p53 knockout
  synergistic induction of cell death: not seen
[1]
  apoptosis induction by co-treatment vs control vector cells: significantly reduced
RKO cells
  apoptotic effect on the p53 response: observed
RKO/E6 cells
  apoptotic effect on the p53 response: not
HT29
  apoptosis induction: not induced
SW480
  apoptosis induction: not induced
[2]; HCT116 and RKO
  Bax levels: no effect
[2]; cells treated with genotoxic agents
  cleavage of PARP: remarkably increased
[2]; [6]
  p53-mediated p21 induction: prevents; also recorded: impaired
  p53 accumulation / stability in response to DNA damage: prevents; also recorded: markedly and consistently impaired
[2]; with chemotherapeutic agents, HCT116 and RKO
  induction of Puma: impaired
p53-inducible DLD1 cells; IP-Western, p53 induction plus LY2119301
  Bax activation: similarly seen
p53-inducible DLD1 cells; Western blot
  ectopically expressed p53 protein levels: no effect
  p53 dependent transcription of p21: no effect
p53-inducible DLD1 cells; in the presence of LY2119301
  apoptosis induced by enforced p53 expression: significantly increased
[3]; IP-Western, p53 over-expression plus LY2119301
  Bax activation: similarly seen
[3]; LY2119301 24 h
  apoptosis induced by enforced p53 expression: significantly increased
[3]; immunoblot
  ectopically expressed p53 protein levels: no effect
  p53 dependent transcription of p21: no effect
Bax [4]
  levels of conformationally active Bax: dramatically increased
Bax [5]
  Bax conformation: no detectable change
